Experimental data from patent publication US8614240B2, “Benzoxazole derivatives having inhibitory activity against interleukin-6, preparation method thereof, and pharmaceutical composition containing the same” (EWHA University-Industry Collaboration Foundation, priority 2010, dated 2013).

Assays:
C57BL/6 female mice = test: In vivo test of toxicity of the compounds (body weight, appearance)
Method: In the animal experiments, C57BL/6 female mice (control group 4 mice, test group (dose group) 4 mice) obtained from Central Lab. Animal Inc. were used. The experimental animals were acclimated by breeding them at the place established with temperature 23 ±3° C., relative humidity 50 ±10%, lighting time 12 hours (6 a.m.-6 p.m.), number of ventilation 10-20 times/hour, and illuminance 150-300 Lux, for one week. All the testers who evaluated the activity in animals worn high-pressure steam sterilized (121° C., 20 minutes) working clothes, hood, mask and gloves, and conducted the experiment. During the periods of accommodation and quarantine the experimental animals were accommodated in a polycarbonate-made shoes box-type breeding cage (260W×410L×200H mm) by 4 mice in each cage. During the periods of administration and observation, the experimental animals were accommodated in a wire breeding cage (205W×350 L×175H mm) with one mouse in each cage. During the period of experiments, the breeding cages were discriminated with attaching the labels in which the experiment numbers and the animal numbers were entered. The animals were allowed to freely ingest a radiation-sterilized (25 kGy, Picolab) solid feed for experimental animals as the feed, and tap water, which was sterilized with an autoclave, as the drinking water by means of a water bottle. […]

[1] = system: Zymosan A-induced paw inflammation in C57BL/6 mice; test: Zymosan A-induced paw inflammation, effect of alleviating the inflammation; assay type: in vivo, mouse; conditions: for Difference between the thicknesses of the right paw and left paw: Zymosan and 30 mg/kg Compound 3 into right paw
Method: For this experiment, C57BL/6 mice were obtained from Central Lab. Animal Inc., and acclimated for one week and then used in the experiment. The gender of animals used in the experiment was female, and 4 mice were used in each of the control group and the test group (Doe group). To experiment Compound 3's effect of alleviating the inflammation, the thicknesses of paws having the inflammation is reduced by injecting 3 mg of Zymosan A and 30 mg/kg of Compound 3 into right paws of the experimental animals, and both the paw thicknesses in the control group to which Zymosan A was administered to induce the inflammation and the control group having no treatment were measured every day, and the results are as shown in FIG. 7.
When the paw thickness was measured every day after inducing the inflammatory reaction by Zymosan, a difference between the thicknesses of the right paw and left paw was 8.5, 7.0, 6.5, 5.5, 5.6 mm. It could be identified that by treatment with Zymosan and Compound 3 the inflammatory reaction was alleviated so that a difference between paw thicknesses was 6.0, 3.0, 2.0, 1.9, 1.8 mm. A difference between paw thicknesses could also be identified in real photographs of the group treated only with Zymosan, the test group treated with Zymosan and Compound 3, and the control group having no treatment of the experimental animals on the 6th day in the inflammation alleviating assay (FIG. 8).

[2] = system: IL-6 induced ERK phosphorylation; test: Test for inhibitory activity against ERK phosphorylation induced by IL-6 (Western blot, HepG2); assay type: cell-based, human; conditions: HepG2, 30 μg/ml (FIG. 5)
Method: HepG2 cell was divisionally inoculated in 6-well plate, and then starved for 18 hours.
The starved cells were treated with the samples for one hour, and then stimulated with IL-6 or LIF (Upstate Biotechnology, USA) for 10 minutes. The specimen was treated with 5× cell lysis buffer (Promega) sometimes with vortexing under ice for 30 minutes. The cell lysate obtained as described under B in Experiment 1 (3) was dissolved in 8% SDS-PAGE gel, and transferred to the nitrocellulose membrane. This membrane was blocked with Tris-buffered solution (50 mM Tris-HCl (pH 7.4), 150 mM NaCl, 0.1% Tween 20) containing 5% non-fat dry milk at 4° C. Then, it was incubated together with an appropriate primary antibody (ERK) present in Tris-buffered solution (50 mM Tris-HCl (pH 7.4), 150 mM NaCl, 0.1% Tween 20) containing 5% non-fat dry milk, at room temperature for 1-2 hours. This membrane was washed five times with TBS buffer solution for 10 minutes, and incubated with 1:6000 diluted horseradish peroxidase-conjugated secondary antibodies for one hour. The membrane was washed 10 times with TBS buffer solution, and then mixed and incubated with the 1:1 mixture of HRP Substrate Luminol Reagent and HRP Substrate Peroxide Solution as ELC reagent (Millipore Corp. Ma USA). The chemiluminescent signals were visualized with X-ray film.

Structure (SMILES): CCc1ccc(Nc2nc3cc(NC(=O)c4ccccc4)ccc3o2)cc1 [Compound 3, N-(2-(4-ethylphenylamino)benzo[d]oxazol-5-yl)benzamide]
- Change in body weight compared to the control group (C57BL/6 female mice; 30 mg/kg intraperitoneally once a day, 5 days, C57BL/6 female mice (FIG. 6)): did not show any change in the weight
- Toxic symptom in appearance (C57BL/6 female mice; after 6 days, C57BL/6 female mice): did not show any toxic symptom in appearance
- Effect of alleviating the inflammation ([1]; 30 mg/kg, Zymosan A-induced paw inflammation (FIGS. 7, 8)): exhibited the effect of alleviating the inflammation
- Difference between the thicknesses of the right paw and left paw ([1]; 1st daily measurement): 6.0 mm
- Difference between the thicknesses of the right paw and left paw ([1]; 2nd daily measurement): 3.0 mm
- Difference between the thicknesses of the right paw and left paw ([1]; 3rd daily measurement): 2.0 mm
- Difference between the thicknesses of the right paw and left paw ([1]; 4th daily measurement): 1.9 mm
- Difference between the thicknesses of the right paw and left paw ([1]; 5th daily measurement): 1.8 mm
- Influence on IL-6 induced ERK phosphorylation [2]: did not influence on ERK phosphorylation
